This note sets out measurements from article PMC11562385 (RSC Chemical Biology, 2024).

Molecules are shown by their SMILES. Like-named read-outs stand apart in the source and are kept apart here. Square brackets hold non-standard residues; d marks the D form. Peptide text beside a SMILES is read from it. * marks the point of attachment. Methacryloyl = C=C(C)C(=O)*; Dab = NCC[C@H](N)C(=O)O; Acryloyl = C=CC(=O)*

One series addresses T1, PD1:PDL1 interaction (Homo sapiens, UniProt Q15116).
T1 construct: purchased BPS Bioscience 72005
As to the kind of experiment: PD1/PDL1 immunoblocking ELISA (BPS Bioscience kit cat # 72005). Format: binding. The protocol: Original loops with Phe/Trp and their Gly-derived analogs. Experimental EC50 values from inhibitory dose–response curves. Error bars indicate the mean ± SD, (n = 3). […]
SDS -Pages, buffers, and stain were purchased from Fisher
8. Immunoblocking ELISA Assay
Peptide inhibitor stock solutions were prepared in the concentration range of approximately 1-5 mM in DMSO. […]
plate was then washed and blocked with blocking buffer for 1 h at room temperature. Inhibitor solutions (ranging from 0.01 to 100 μM) and a blank solution (DMSO/PBS buffer) were added to designated wells. To initiate the […]
inhibitor solutions. After a 2 h incubation at room temperature, the plate was washed and blocked again for 10 min. Streptavidin-HRP (diluted at 1 : 1000) was added and incubated for 1 h at room temperature with gentle shaking. The plate was washed and blocked once more for 10 min. ELISA ECL substrate was added, and the resulting chemoluminescence was immediately measured in a luminometer (FLUOstar OPTIMA, BMG Labtech).
The luminescence value of the blank was subtracted from all readings according to the manufacturer's
A general note: In an ELISA, binding on a coated surface is turned into a signal by an enzyme label.

A short description of series [1]: Variable-temperature CD melting curves (CD-melts at 228±2 nm and 202±2 nm), individual and global two-state fits. Format: physicochemical. The procedure:
Recently, our laboratory brought forward a novel synthetic technology for the synthesis of acyclic β-hairpins with long loops. […] To compare hairpins’ stability, both regular (R) and bulged (B) scaffolds were crafted around a flexible 10-residue model loop (G4K2G4) and analyzed by CD (circular dichroism) spectroscopy (Fig. 2(A), see ESI, ^† Table S5). The […] structure of these model scaffolds 1avs.2a in solution were recorded in the far-UV CD spectra. […] The CD-exciton intensity was therefore used as a global probe to determine the %-folding of ADAPTins and to obtain melting curves corresponding to the hairpin fraying mechanism upon a gradual increase of temperature (0 to 95 °C).[68] […] In addition, NMR (nuclear magnetic resonance) chemical shifts were measured to determine variations in backbone […] structures (Fig. 2(B)). Secondary chemical shift deviations (CSDs) were calculated against random coil values[69] for both ADAPTin scaffolds 1vs.2 to verify that the hairpins were folded and if any variation of conformational rigidity exist within the loops. […]
Mass Spectrometer coupled to a Vanquish™ Neo UHPLC System (Thermo Scientific™). Peptide solutions for circular dichroism (CD) were prepared within a concentration range of 15-120 µM in a phosphate buffer (15 mM, […]
measured accurately using a JASCO V-670 spectrophotometer relied on the combined molar absorptivity of Trp (ε280 = 5580 M-1 .cm-1 per Trp) and Tyr (ε280 = 1280 M-1 .cm-1 per Tyr) to determine each sample's concentration.
CD spectra were recorded using a JASCO J-810 Spectropolarimeter equipped with a temperature controller module JASCO PFD-425S. Raw CD melting curves were processed in SpectraGryph, and fitting was performed in OriginPro 9.0 (Originlab Corporation, U.S.A.). NMR samples were prepared by reconstituting freeze -dried peptides (~ 1-5 mg) in mixture of water and DMSO -d6 (90:10 v/v) using 2,2-dimethyl-2-silapentane-5-sulfonate (DSS) as internal standard for chemical shifts (0 ppm), and spectra were recorded at 291 K (18 °C) unless otherwise stated. Chemical shifts ( δ) are reported in ppm. Samples for NMR experiments were prepared in a range of 3-10 mM of peptide in solution unless otherwise noted.

[2] abbreviates: ELISA, mean of three independent experiments, read-out: EC50 Value.
[3] abbreviates: two-state fit of the CD melt θ - θcoil(95) vs T, 0-95 °C, l 0.1 cm, peptide c 3.2e-5 to 5e-5 M.

T1 sequence (Q15116 25-167 limits assumed): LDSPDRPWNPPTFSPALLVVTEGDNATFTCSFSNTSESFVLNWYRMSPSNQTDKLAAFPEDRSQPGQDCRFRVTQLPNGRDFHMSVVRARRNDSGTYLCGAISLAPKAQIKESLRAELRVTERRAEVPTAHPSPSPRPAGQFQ

In general, EC50 refers to the concentration that produces a half-maximal response. `CC(C)[C@H](NC(=O)CNC(=O)[C@H](CO)NC(=O)[C@H](CO)NC(=O)[C@H](CC(=O)O)NC(=O)[C@@H]1CCCN1C(=O)[C@H](CO)NC(=O)[C@H](Cc1c[nH]c2ccccc12)NC(=O)[C@@H](NC(=O)[C@H](Cc1c[nH]c2ccccc12)NC(=O)[C@@H](N)CCCNC(=N)N)C(C)C)C(=O)N[C@@H](C)C(=O)N[C@@H](Cc1ccc(O)cc1)C(=O)N[C@@H](Cc1c[nH]c2ccccc12)C(=O)N[C@H](C(=O)N[C@@H](Cc1c[nH]c2ccccc12)C(=O)N[C@@H](CCC(=O)O)C(=O)O)C(C)C` [1e] (H-RWVWSPDSSGVAYWVWE-OH): at PD1:PDL1 interaction (setting [2]), the 50% effective concentration (EC50) stood at 0.27 µM. Also, on PD1:PDL1 interaction (LE = -RTln(EC50)/HA, HA = non-hydrogen atoms omitting the strap (RWV•••VWE)), the “LE (ligand efficiency)” value worked out at 0.10. For the same compound, the ΔGF0 in series [1] (CD-melt at 228±2 nm, individual two-state Gibbs-Helmholtz fit (Origin 9.0), 0-95 °C, phosphate buffer 15 mM pH 6.5 ± MeOH) was -0.90 ± 0.01 kcal/mol. Moreover, in series [1] (Table S5, individual fit, 228±2 nm), the Tm amounted to 58.3 oC. Further, the “Hairpin %-fold 291K” value in series [1] (Table S5, individual fit, 291 K) was 85 ± 1%. The “Hairpin %-fold 310K” value in series [1] (Table S5, individual fit, 310 K) is on record as 74 ± 1%. Moreover, in series [1] (as E16), the “-TΔSF0” value was 5.60 ± 0.06 kcal/mol, the ΔCpF0 is listed as -148 ± 4 cal.deg-1.mol-1, the ΔHF0 was -6.50 ± 0.06 kcal/mol and the ΔHm is -11.5 ± 0.05 kcal/mol. Besides, the VT-CD %-fold in series [1] (folded fraction (χF) at 25 °C from CD-melts, (R) regular / (B) bulged fold, phosphate buffer 15 mM pH 6.5, up to 20% MeOH) is reported as 85% (R). The “VT-CD Tm (°C)” value in series [1] (melting temperature from CD-melts, phosphate buffer 15 mM pH 6.5, up to 20% MeOH) is 58 °C. Moreover, in series [1] (setting [3]), the “DHm (fitted value, results from OriginPro)” value was -11.4534 kcal/mol and the “Tm (fitted value, results from OriginPro)” value is listed as 331.438 K.

Compound `CSCC[C@H](NC(=O)CNC(=O)[C@H](CCC(=O)O)NC(=O)[C@H](CCCNC(=N)N)NC(=O)[C@H](C)NC(=O)[C@@H](NC(=O)[C@H](Cc1c[nH]c2ccccc12)NC(=O)[C@@H](N)CCCNC(=N)N)C(C)C)C(=O)N[C@@H](CC(N)=O)C(=O)N[C@H](C(=O)N[C@@H](CC(=O)O)C(=O)NCC(=O)N[C@@H](Cc1ccc(O)cc1)C(=O)N[C@@H](Cc1ccccc1)C(=O)N[C@@H](CC(=O)O)C(=O)N[C@@H](Cc1ccc(O)cc1)C(=O)N[C@@H](Cc1c[nH]c2ccccc12)C(=O)N[C@@H](Cc1cnc[nH]1)C(=O)N[C@@H](Cc1c[nH]c2ccccc12)C(=O)N[C@@H](CCC(=O)O)C(=O)O)[C@@H](C)O` [2o] (H-RWVAREGMNTDGYFDYWHWE-OH) registered an EC50 on PD1:PDL1 interaction of 0.349 µM.

For the compound `C=CC(=O)NCC[C@H](NC(=O)[C@H](CC(=O)O)NC(=O)[C@H](Cc1ccccc1)NC(=O)[C@H](CCCNC(=N)N)NC(=O)[C@H](Cc1ccc(O)cc1)NC(=O)[C@H](CC(=O)O)NC(=O)[C@H](CCCNC(=N)N)NC(=O)[C@H](CCCNC(=N)N)NC(=O)[C@H](C)NC(=O)[C@@H](NC(=O)[C@H](Cc1c[nH]c2ccccc12)NC(=O)[C@@H](N)CCCNC(=N)N)C(C)C)C(=O)NCC(=O)N[C@@H](Cc1ccccc1)C(=O)N[C@@H](CC(=O)O)C(=O)N[C@@H](Cc1ccc(O)cc1)C(=O)N[C@@H](Cc1c[nH]c2ccccc12)C(=O)N[C@H](C(=O)N[C@@H](Cc1c[nH]c2ccccc12)C(=O)N[C@@H](CCC(=O)O)C(=O)O)C(C)C` [2ca] (H-RWVARRDYRFD[Dab](Acryloyl)GFDYWVWE-OH), on PD1:PDL1 interaction (setting [2]), the half-maximal effective concentration (EC50) amounted to 5.22 µM.

With `CSCC[C@H](NC(=O)CNC(=O)[C@H](CCC(=O)O)NC(=O)[C@H](CCCNC(=N)N)NC(=O)[C@H](C)NC(=O)[C@@H](NC(=O)[C@H](Cc1c[nH]c2ccccc12)NC(=O)[C@@H](N)CCCNC(=N)N)C(C)C)C(=O)N[C@@H](CC(N)=O)C(=O)N[C@H](C(=O)N[C@@H](CC(=O)O)C(=O)N[C@@H](Cc1c[nH]c2ccccc12)C(=O)N[C@@H](Cc1ccc(O)cc1)C(=O)N[C@@H](Cc1ccccc1)C(=O)N[C@@H](CC(=O)O)C(=O)N[C@@H](Cc1ccc(O)cc1)C(=O)N[C@@H](Cc1c[nH]c2ccccc12)C(=O)N[C@@H](Cc1cnc[nH]1)C(=O)N[C@@H](Cc1c[nH]c2ccccc12)C(=O)N[C@@H](CCC(=O)O)C(=O)O)[C@@H](C)O` [2n] (H-RWVAREGMNTDWYFDYWHWE-OH), at PD1:PDL1 interaction (setting [2]), the EC50 came out at 0.252 µM.

With `CSCC[C@H](NC(=O)[C@H](CC(=O)O)NC(=O)[C@H](Cc1ccccc1)NC(=O)[C@H](CCCNC(=N)N)NC(=O)[C@H](Cc1ccc(O)cc1)NC(=O)[C@H](CC(=O)O)NC(=O)[C@H](CCCNC(=N)N)NC(=O)[C@H](CCCNC(=N)N)NC(=O)[C@H](C)NC(=O)[C@@H](NC(=O)[C@H](Cc1c[nH]c2ccccc12)NC(=O)[C@@H](N)CCCNC(=N)N)C(C)C)C(=O)NCC(=O)N[C@@H](Cc1ccccc1)C(=O)N[C@@H](CC(=O)O)C(=O)N[C@@H](Cc1ccc(O)cc1)C(=O)N[C@@H](Cc1c[nH]c2ccccc12)C(=O)N[C@@H](Cc1cnc[nH]1)C(=O)N[C@@H](Cc1c[nH]c2ccccc12)C(=O)N[C@@H](CCC(=O)O)C(=O)O` [2e] (H-RWVARRDYRFDMGFDYWHWE-OH), on PD1:PDL1 interaction (setting [2]), the EC50 came out at 0.586 µM.

Turning to `CSCC[C@H](NC(=O)[C@H](CC(=O)O)NC(=O)[C@H](Cc1ccccc1)NC(=O)[C@H](CCCNC(=N)N)NC(=O)[C@H](Cc1ccc(O)cc1)NC(=O)[C@H](CC(=O)O)NC(=O)[C@H](CCCNC(=N)N)NC(=O)[C@H](CCCNC(=N)N)NC(=O)[C@H](CCCCN)NC(=O)[C@@H](NC(=O)[C@H](Cc1c[nH]c2ccccc12)NC(=O)[C@@H](N)CCCNC(=N)N)C(C)C)C(=O)NCC(=O)N[C@@H](Cc1ccccc1)C(=O)N[C@@H](CC(=O)O)C(=O)N[C@@H](Cc1ccc(O)cc1)C(=O)N[C@@H](Cc1c[nH]c2ccccc12)C(=O)N[C@H](C(=O)N[C@@H](Cc1c[nH]c2ccccc12)C(=O)N[C@@H](CCC(=O)O)C(=O)O)C(C)C` [2g] (H-RWVKRRDYRFDMGFDYWVWE-OH), the concentration giving a half-maximal response (EC50) at PD1:PDL1 interaction (setting [2]) came out at 0.078 µM.

With `CSCC[C@H](NC(=O)[C@H](CC(=O)O)NC(=O)[C@H](Cc1ccccc1)NC(=O)[C@H](CCCNC(=N)N)NC(=O)[C@H](Cc1ccc(O)cc1)NC(=O)[C@H](CC(=O)O)NC(=O)[C@H](CCCNC(=N)N)NC(=O)[C@H](CCCNC(=N)N)NC(=O)[C@H](C)NC(=O)[C@@H](NC(=O)[C@H](Cc1c[nH]c2ccccc12)NC(=O)[C@@H](N)CCCNC(=N)N)C(C)C)C(=O)NCC(=O)N[C@@H](Cc1ccccc1)C(=O)N[C@@H](CC(N)=O)C(=O)N[C@@H](Cc1ccc(O)cc1)C(=O)N[C@@H](Cc1c[nH]c2ccccc12)C(=O)N[C@H](C(=O)N[C@@H](Cc1c[nH]c2ccccc12)C(=O)N[C@@H](CCC(=O)O)C(=O)O)C(C)C` [2k] (H-RWVARRDYRFDMGFNYWVWE-OH), the EC50 at PD1:PDL1 interaction (setting [2]) was 0.17 µM.

For the compound `C=C(C)C(=O)NCC[C@H](NC(=O)[C@H](CC(=O)O)NC(=O)[C@H](Cc1ccccc1)NC(=O)[C@H](CCCNC(=N)N)NC(=O)[C@H](Cc1ccc(O)cc1)NC(=O)[C@H](CC(=O)O)NC(=O)[C@H](CCCNC(=N)N)NC(=O)[C@H](CCCNC(=N)N)NC(=O)[C@H](C)NC(=O)[C@@H](NC(=O)[C@H](Cc1c[nH]c2ccccc12)NC(=O)[C@@H](N)CCCNC(=N)N)C(C)C)C(=O)NCC(=O)N[C@@H](Cc1ccccc1)C(=O)N[C@@H](CC(=O)O)C(=O)N[C@@H](Cc1ccc(O)cc1)C(=O)N[C@@H](Cc1c[nH]c2ccccc12)C(=O)N[C@H](C(=O)N[C@@H](Cc1c[nH]c2ccccc12)C(=O)N[C@@H](CCC(=O)O)C(=O)O)C(C)C` [2cd] (H-RWVARRDYRFD[Dab](Methacryloyl)GFDYWVWE-OH), the concentration for a half-maximal effect (EC50) at PD1:PDL1 interaction (setting [2]) turned out to be 9.87 µM.
